Data from US12365706B2, “Macrocyclic peptides as potent inhibitors of K-RAS G12D mutant” (Merck Sharp & Dohme LLC, priority 2019, dated 2025).
Starred links: 1 amine or outer side, 2 acyl side, 3 side chain; linkers in the order of their positions; H or OH if unused. Positions of bridges follow the written chain, without caps; N, C: chain ends. Non-standard residues stand in square brackets, D forms with d. Residues, ends and D or L forms follow the SMILES beside them. Lys(N3) = [N-]=[N+]=NCCCC[C@H](N)C(=O)O; AEEA = NCCOCCOCC(=O)O; CH2 = C([*:1])[*:2]

Columns and labels:
[1] = Cell homogenate stability assay; type: in vitro ADME
Description: Stability of peptides towards intracellular proteases can be evaluated using HeLa cell homogenate. Suspended HeLa cells at 1 million cells/mL are sonicated in bursts with a probe sonicator on ice until uniformly homogenized. The homogenate thus prepared is frozen and stored at −20° C. until use. The peptides are incubated with the homogenate at 1 million cells/mL and loss of the peptide with increasing time is quantified using LC-MS/MS. Briefly, the test peptide is incubated with the homogenate at 1 μM in final volume of 50 μL at 37° C. At 0, 10, 30, 60 and 120 min, the reactions are quenched with 150 μL solution of 80% (v/v) Acetonitrile in Methanol containing a known internal standard peptide. The quenched samples are centrifuged at 4000 rpm for 5 min at 10° C. and supernatants are injected for bioanalysis by liquid chromatography combined with tandem-mass spectrometer. […] In addition, pre-boiled homogenate (prepared by incubating homogenate for 30 min in boiling water) is also used as a negative control for each test peptide. The ke is first-order rate constant describing the disappearance of parent drug in the incubation and may be obtained from regressing the initial slope (ke=−(slope)) of the natural log of the analyte area/internal standard area (designated as C at an appointed time t) in C versus time (min) profile. The half-life (t½) is calculated as: […]

K-Ras(G12D) (GMPPNP) = molecular target: T1, K-Ras(G12D) (GMPPNP) (Homo sapiens, UniProt P01116, G12D); experiment: TR-FRET competitive binding assay, K-Ras(G12D) loaded with GMPPNP
T1 construct: His-SUMO-tagged human K-Ras resides 1-169 was expressed; His-SUMO (N, cleaved yes); made in house; host or cells: E. coli Rosetta 2 (DE3)

K-Ras(G12D) = K-Ras(G12D) (Homo sapiens, UniProt P01116, G12D); conditions: cited from earlier work
ERK1/2 = conditions: cited from earlier work
[2] = system: AsPC-1 (homozygous K-Ras(G12D)) cells; experiment: Cellular phospho-ERK assay in AsPC-1 cells; type: cell-based
Description: The cellular K-Ras inhibitory activity was evaluated by phosphorylation levels of ERK1/2 in AsPC-1 (homozygous K-Ras(G12D)) cells. AsPC-1 cells (ATCC® CRL-1682™) were cultured in T175 flask in growth medium (RPMI 1640 Medium, GlutaMAX™ Supplement, HEPES (Gibco 72400-047) supplemented with 10% fetal bovine serum (Hyclone SH30071.03) and 1× Penicillin/Streptomycin (Gibco 15140-122). The cells were harvested in seeding medium (RPMI 1640 Medium, no phenol red (Gibco 11835-030) supplemented with 10% fetal bovine serum (Hyclone SH30071.03), 25 mM HEPES (Gibco 15630-080) and 1× Penicillin/Streptomycin (Gibco 15140-122) after 5 min of 0.25% Trypsin-EDTA (Gibco 25200-056) digestion and were seeded in 384-well tissue culture treated plate (Greiner 781091) at a density of 15,000 cells/25 μL/well, and incubated at 37° C., 5% CO2 overnight. […] Phosphorylated ERK and total ERK levels were detected by Alpha SureFire Ultra Multiplex pERK kit (PerkinElmer MPSU-PTERK) using […] and 5 μL donor bead mix, both prepared following the manufacturer's protocol. […] Ratio of pERK vs total ERK in each well was used as the final readout. Dose response curves and EC50 were analyzed using a 4-parameter logistic equation in GraphPad Prism software (GraphPad, San Diego, CA).

K-Ras^G12D (GDP) [3] = molecular target: T2, K-Ras^G12D (GDP) (Homo sapiens, UniProt P01116, G12D); experiment: TR-FRET competitive binding assay, K-Ras(G12D) loaded with GDP
T2 construct: His-SUMO-tagged human K-Ras resides 1-169 was expressed; His-SUMO (N, cleaved yes); made in house; host or cells: E. coli Rosetta 2 (DE3)

[4] = system: A427 cells (which contain the K-Ras(G12D) mutation); conditions: dose-dependent manner; cited from earlier work
K-Ras^G12D (GDP) [5] = molecular target: T2, K-Ras^G12D (GDP); experiment: TR-FRET [K-Ras^G12D (GDP)] | EC50 (nM)

| proteolytic degradation of the macrocycle in a cell homogenate stability study [1] | affinity for the GTP-loaded form of K-Ras (G12D) (K-Ras(G12D) (GMPPNP)) | affinity for the GDP-loaded form of K-Ras (G12D) (K-Ras^G12D (GDP) [3]) | SMILES | mutant selectivity in SOS1-mediated GDP-GTP exchange (K-Ras(G12D); G12D against G12C and wild-type K-Ras) | inhibition of SOS1-mediated GDP-GTP exchange (K-Ras(G12D)) | phosphorylation levels of ERK1/2 (ERK1/2) | inhibition of ERK phosphorylation in an AsPC-1 cell line [2] | cell proliferation of A427 cells [4] | EC50 (K-Ras^G12D (GDP) [5]) [nM] |
| --- | --- | --- | --- | --- | --- | --- | --- | --- | --- |
| rapid proteolytic degradation | weaker affinity | high affinity | CC[C@H](C)[C@@H]1NC(=O)[C@H](Cc2ccc(O)cc2)NC(=O)[C@H](CC(C)C)NC(=O)[C@@H]2CCCN2C(=O)[C@@H](NN[C@@H](CCCNC(=N)N)C(=O)N[C@@H](CCCNC(=N)N)C(=O)N[C@@H](CCCNC(=N)N)C(=O)N[C@@H](CCCNC(=N)N)C(=O)CC=O)CSSC[C@@H](C(=O)N[C@@H](CCCNC(=N)N)C(=O)N[C@@H](CCCNC(=N)N)C(=O)N[C@@H](CCCNC(=N)N)C(=O)N[C@@H](CCCNC(=N)N)C(N)=O)NC(=O)[C@H](C(C)C)NC(=O)[C@@H]2CCCN2C(=O)[C@H](CC(=O)O)NC(=O)[C@H](Cc2ccc(O)cc2)NC(=O)[C@H](CO)NC1=O [KRpep-2d] | G12D-mutant selectivity against G12C and wild-type K-Ras variants | potently inhibited | reduced phosphorylation levels of ERK1/2 | absence of biological activity | suppressed cell proliferation |  |
|  |  |  | CC[C@H](C)[C@@H]1NC(=O)[C@H](Cc2ccc(O)cc2)NC(=O)[C@H](CC(C)C)NC(=O)[C@@H]2CCCN2C(=O)[C@H](NC(=O)COCCOCCNC(=O)[C@H](CCCCN=[N+]=[N-])NC(=O)CNC(=O)[C@H](CCCCN)NC(=O)[C@H](CCCCN)NC(=O)[C@H](Cc2c[nH]c3ccccc23)NC(=O)[C@H](CCCCN)NC(=O)[C@H](CCSC)NC(=O)[C@H](CCCNC(=N)N)NC(=O)[C@H](CCCNC(=N)N)NC(=O)[C@H](CC(N)=O)NC(=O)[C@H](CCC(N)=O)NC(=O)[C@H](Cc2ccccc2)NC(=O)[C@H](Cc2c[nH]c3ccccc23)NC(=O)[C@@H](NC(=O)[C@H](CCCCN)NC(=O)[C@@H](NC(=O)[C@H](CCC(N)=O)NC(=O)[C@H](CCCNC(=N)N)NC(C)=O)[C@@H](C)CC)[C@@H](C)CC)CSCSC[C@@H](C(=O)N[C@@H](CCCNC(=N)N)C(N)=O)NC(=O)[C@H](C(C)C)NC(=O)[C@@H]2CCCN2C(=O)[C@H](CC(=O)O)NC(=O)[C@H](Cc2ccc(O)cc2)NC(=O)[C@H](CO)NC1=O [SEQ ID NO: 16] (Ac-RQIKIWFQNRRMKWKKG[Lys(N3)][AEEA][dC]PLYISYDPVCR-NH2; linker 20-30 via CH2) |  |  |  |  |  | 400 |
